Test results as given in patent US8952024B2, “Herbicidal pyrimidone derivatives” (E I du Pont de Nemours and Company, priority 2009, dated 2015).

Key:
Assay in all cases: Test B pre-/postemergence plant response
Assay type in all cases: in vivo
[1] = system: lambsquarters (Chenopodium album); conditions: Postemergence
How it was run: (§1)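 Test compounds, formulated in a non-phytotoxic solvent mixture with surfactant, are applied to the soil surface (loam and sand blend) right after seeding, or sprayed over plants at the 1- to 4-leaf stage grown in peat moss/vermiculite medium. After 13 to 15 days under glasshouse conditions, each species is scored visually from 0 (no effect) to 100 (complete control) against controls.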

[2] = system: ragweed (common ragweed, Ambrosia elatior); conditions: Postemergence
How it was run: as §1

[3] = system: blackgrass (Alopecurus myosuroides); conditions: for Blackgrass plant response rating (0 to 100 scale): 62 g ai/ha, postemergence, 0 is no effect, 100 is complete control; for Plant response rating, Blackgrass: Postemergence
How it was run: as §1

[4] = system: goosegrass (Eleusine indica); conditions: Postemergence
How it was run: as §1

[5] = system: Italian ryegrass (Lolium multiflorum); conditions: Postemergence
How it was run: as §1

[6] = system: johnsongrass (Sorghum halepense); conditions: Postemergence
How it was run: as §1

[7] = system: velvetleaf (Abutilon theophrasti); conditions: Postemergence
How it was run: as §1

[8] = system: bermudagrass (Cynodon dactylon); conditions: for Bermudagrass plant response rating (0 to 100 scale): 62 g ai/ha, postemergence, 0 is no effect, 100 is complete control; for Plant response rating, Bermudagrass: Postemergence
How it was run: as §1

[9] = system: downy bromegrass (Bromus tectorum); conditions: for Bromegrass, Downy plant response rating (0 to 100 scale): 62 g ai/ha, postemergence, 0 is no effect, 100 is complete control; for Plant response rating, Bromegrass, Downy: Postemergence
How it was run: as §1

[10] = system: large crabgrass (Digitaria sanguinalis); conditions: Postemergence
How it was run: as §1

[11] = system: giant foxtail (Setaria faberii); conditions: Postemergence
How it was run: as §1

[12] = system: yellow nutsedge (Cyperus esculentus); conditions: Postemergence
How it was run: as §1

corn (Zea mays) = conditions: Postemergence
How it was run: as §1

[13] = system: green foxtail (Setaria viridis); conditions: Postemergence
How it was run: as §1

[14] = system: woolly cupgrass (Eriochloa villosa); conditions: Postemergence
How it was run: as §1

kochia (Kochia scoparia) = conditions: Postemergence
How it was run: as §1

[15] = 31 g ai/ha, 0 to 100 scale (0 no effect, 100 complete control)
[16] = 125 g ai/ha, scale 0 to 100 (0 no effect, 100 complete control)
[17] = 250 g ai/ha, scale 0 to 100 (0 no effect, 100 complete control), 13 to 15 days

## CCCn1c(-c2cc(Cl)cc(Cl)c2)ncc(C(=O)C2=C(O)CCCC2=O)c1=O [Compound 173]
[1]; [15]
  Plant response rating, Lambsquarters: 98
[1]; [16]
  Plant response rating, Lambsquarters: 100
[1]; [17]
  Plant response rating, Lambsquarters: 100
[2]; [15]
  Plant response rating, Ragweed: 55
[2]; [16]
  Plant response rating, Ragweed: 90
[2]; [17]
  Plant response rating, Ragweed: 98
[3]; 13 to 15 days
  Blackgrass plant response rating (0 to 100 scale): 10
[3]; [15]
  Plant response rating, Blackgrass: 5
[3]; [16]
  Plant response rating, Blackgrass: 30
[3]; [17]
  Plant response rating, Blackgrass: 50
[4]; [15]
  Plant response rating, Goosegrass: 80
[4]; [16]
  Plant response rating, Goosegrass: 95
[4]; [17]
  Plant response rating, Goosegrass: 100
[5]; [15]
  Plant response rating, Ryegrass, Italian: 0
[5]; [16]
  Plant response rating, Ryegrass, Italian: 30
[5]; [17]
  Plant response rating, Ryegrass, Italian: 30
[6]; [15]
  Plant response rating, Johnsongrass: 65
[6]; [16]
  Plant response rating, Johnsongrass: 95
[7]; [15]
  Plant response rating, Velvetleaf: 100
[7]; [16]
  Plant response rating, Velvetleaf: 100
[7]; [17]
  Plant response rating, Velvetleaf: 100
[8]; 13 to 15 days
  Bermudagrass plant response rating (0 to 100 scale): 98
[8]; [15]
  Plant response rating, Bermudagrass: 98
[8]; [16]
  Plant response rating, Bermudagrass: 100
[8]; [17]
  Plant response rating, Bermudagrass: 100
[9]; 13 to 15 days
  Bromegrass, Downy plant response rating (0 to 100 scale): 25
[9]; [15]
  Plant response rating, Bromegrass, Downy: 5
[9]; [16]
  Plant response rating, Bromegrass, Downy: 40
[9]; [17]
  Plant response rating, Bromegrass, Downy: 70
[10]; [15]
  Plant response rating, Crabgrass, Large: 70
[10]; [16]
  Plant response rating, Crabgrass, Large: 95
[10]; [17]
  Plant response rating, Crabgrass, Large: 100
[11]; [15]
  Plant response rating, Foxtail, Giant: 95
[11]; [16]
  Plant response rating, Foxtail, Giant: 100
[11]; [17]
  Plant response rating, Foxtail, Giant: 100
[12]; [15]
  Plant response rating, Nutsedge, Yellow: 45
[12]; [16]
  Plant response rating, Nutsedge, Yellow: 60
[12]; [17]
  Plant response rating, Nutsedge, Yellow: 75
Corn (Zea mays); [15]
  Plant response rating, Corn: 5
Corn (Zea mays); [16]
  Plant response rating, Corn: 60
Corn (Zea mays); [17]
  Plant response rating, Corn: 85
[13]; [15]
  Plant response rating, Foxtail, Green: 55
[13]; [16]
  Plant response rating, Foxtail, Green: 90
[13]; [17]
  Plant response rating, Foxtail, Green: 90
[14]; [15]
  Plant response rating, Cupgrass, Woolly: 85
[14]; [16]
  Plant response rating, Cupgrass, Woolly: 100
[14]; [17]
  Plant response rating, Cupgrass, Woolly: 100
Kochia (Kochia scoparia); [15]
  Plant response rating, Kochia: 65
Kochia (Kochia scoparia); [16]
  Plant response rating, Kochia: 98
Kochia (Kochia scoparia); [17]
  Plant response rating, Kochia: 100

## O=C1CCCC(O)=C1C(=O)c1cnc(-c2ccsc2)n(C2CCOCC2)c1=O [Compound 186]
[1]; [15]
  Plant response rating, Lambsquarters: 98
[1]; [16]
  Plant response rating, Lambsquarters: 100
[1]; [17]
  Plant response rating, Lambsquarters: 100
[2]; [15]
  Plant response rating, Ragweed: 85
[2]; [16]
  Plant response rating, Ragweed: 100
[2]; [17]
  Plant response rating, Ragweed: 100
[3]; 13 to 15 days
  Blackgrass plant response rating (0 to 100 scale): 0
[3]; [15]
  Plant response rating, Blackgrass: 0
[3]; [16]
  Plant response rating, Blackgrass: 5
[3]; [17]
  Plant response rating, Blackgrass: 20
[4]; [15]
  Plant response rating, Goosegrass: 85
[4]; [16]
  Plant response rating, Goosegrass: 98
[4]; [17]
  Plant response rating, Goosegrass: 100
[5]; [15]
  Plant response rating, Ryegrass, Italian: 0
[5]; [16]
  Plant response rating, Ryegrass, Italian: 0
[5]; [17]
  Plant response rating, Ryegrass, Italian: 30
[6]; [15]
  Plant response rating, Johnsongrass: 65
[6]; [16]
  Plant response rating, Johnsongrass: 75
[6]; [17]
  Plant response rating, Johnsongrass: 100
[7]; [15]
  Plant response rating, Velvetleaf: 70
[7]; [16]
  Plant response rating, Velvetleaf: 100
[7]; [17]
  Plant response rating, Velvetleaf: 100
[8]; 13 to 15 days
  Bermudagrass plant response rating (0 to 100 scale): 80
[8]; [15]
  Plant response rating, Bermudagrass: 80
[8]; [16]
  Plant response rating, Bermudagrass: 95
[8]; [17]
  Plant response rating, Bermudagrass: 98
[9]; 13 to 15 days
  Bromegrass, Downy plant response rating (0 to 100 scale): 25
[9]; [15]
  Plant response rating, Bromegrass, Downy: 5
[9]; [16]
  Plant response rating, Bromegrass, Downy: 30
[9]; [17]
  Plant response rating, Bromegrass, Downy: 50
[10]; [15]
  Plant response rating, Crabgrass, Large: 80
[10]; [16]
  Plant response rating, Crabgrass, Large: 85
[10]; [17]
  Plant response rating, Crabgrass, Large: 95
[11]; [15]
  Plant response rating, Foxtail, Giant: 75
[11]; [16]
  Plant response rating, Foxtail, Giant: 95
[11]; [17]
  Plant response rating, Foxtail, Giant: 95
[12]; [15]
  Plant response rating, Nutsedge, Yellow: 65
[12]; [16]
  Plant response rating, Nutsedge, Yellow: 75
[12]; [17]
  Plant response rating, Nutsedge, Yellow: 80
Corn (Zea mays); [15]
  Plant response rating, Corn: 10
Corn (Zea mays); [16]
  Plant response rating, Corn: 30
Corn (Zea mays); [17]
  Plant response rating, Corn: 65
[13]; [15]
  Plant response rating, Foxtail, Green: 50
[13]; [16]
  Plant response rating, Foxtail, Green: 85
[13]; [17]
  Plant response rating, Foxtail, Green: 95
[14]; [15]
  Plant response rating, Cupgrass, Woolly: 70
[14]; [16]
  Plant response rating, Cupgrass, Woolly: 80
[14]; [17]
  Plant response rating, Cupgrass, Woolly: 85
Kochia (Kochia scoparia); [15]
  Plant response rating, Kochia: 75
Kochia (Kochia scoparia); [16]
  Plant response rating, Kochia: 100
Kochia (Kochia scoparia); [17]
  Plant response rating, Kochia: 100
